# Experimental data as given in patent US20250092065A1, “2-(INDAZOL-5-YL)-6-(PIPERIDIN-4-YL)-1,7-NAPHTHYRIDINE DERIVATIVES AND RELATED COMPOUNDS AS MODULATORS FOR SPLICING NUCLEIC ACIDS AND FOR THE TREATMENT OF PROLIFERATIVE DISEASES” (REMIX THERAPEUTICS INC., priority 2022, published 2025).
# Like-named read-outs stand apart in the source and are kept apart here.
# Test system: MYB mRNA
# Experiment: RT-qPCR splicing assay, MYB mRNA canonical (CJ) and alternative (AJ) junction
# Type: cell-based, human
# Conditions: Homo sapiens; for AC50: MYB alternative junction mRNA, read-out: MYB AJ (increase in AJ mRNA, AC50)
# In short: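 Junction-specific RT-qPCR read-out: CJ and AJ isoform levels, housekeeper-normalized (GAPDH/GUSB/PPIA), ΔΔCt vs DMSO, converted to RQ then % response. Cells: A673 (DMEM/10% FBS, adhered 24 h) or K562 (IMDM/10% FBS). Compound 11-pt 3-fold, top 10 uM, 24 h, 37 °C.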
# [1] = MYB canonical junction mRNA, RT-qPCR, read-out: MYB CJ (decrease in CJ mRNA levels, IC50)
# [2] = canonical junction qPCR panel, Table 4, read-out: MYB IC50 (decrease in CJ mRNA levels)
Compound,AC50 (RT-qPCR),IC50 [1],IC50 [2]
"Cn1cc2cc(-c3ccc4nc([C@@H]5CCNC6(CC6)C5)ccc4n3)c(O)cc2n1 (single isomer, unassigned) [Compound 495]",< 100 nM,< 100 nM,< 100 nM
"Cn1cc2cc(-c3ccc4nc([C@H]5CCNC6(CC6)C5)ccc4n3)c(O)cc2n1 (single isomer, unassigned) [Compound 496]",< 100 nM,100 to 1000 nM,100 to 1000 nM
"Cc1nc2cc(O)c(-c3ccc4nc([C@H]5CCNC6(CC6)C5)ccc4n3)cc2o1 (single isomer, unassigned) [Compound 497]",< 100 nM,< 100 nM,< 100 nM
"Cc1nc2cc(O)c(-c3ccc4nc([C@@H]5CCNC6(CC6)C5)ccc4n3)cc2o1 (single isomer, unassigned) [Compound 498]",< 100 nM,100 to 1000 nM,100 to 1000 nM
"CN[C@@H]1CCN(c2ccc3nc(-c4cn5cc(C)nc5c(C)c4O)ncc3n2)C1 (single isomer, unassigned) [Compound 504]",100 to 1000 nM,100 to 1000 nM,100 to 1000 nM
"CNC(=O)c1nc(-c2cc3cn(C)nc3c(C)c2O)nc2ccc(N3CCN[C@@H](C)C3)cc12 (single isomer, unassigned) [Compound 512]",< 100 nM,< 100 nM,< 100 nM
"CN[C@@H]1CCN(c2ccc3nc(-c4cc5cn(C)nc5c(C)c4O)ncc3c2)C1 (single isomer, unassigned) [Compound 521]",< 100 nM,< 100 nM,< 100 nM
"CNC(=O)c1nc(-c2cc3cn(C)nc3c(C)c2O)nc2ccc(N3C[C@@H](C)N[C@H](C)C3)cc12 (single isomer, unassigned) [Compound 653]",< 100 nM,< 100 nM,< 100 nM
"Cc1c(O)c(-c2ncc3cc(N4C[C@@H](C)N[C@H](C)C4)ccc3n2)cc2cn(C)nc12 (single isomer, unassigned) [Compound 661]",100 to 1000 nM,100 to 1000 nM,100 to 1000 nM
"CNC(=O)c1nc(-c2cc3cn(C)nc3c(F)c2O)nc2ccc(N3C[C@@H](C)N[C@H](C)C3)cc12 (single isomer, unassigned) [Compound 668]",< 100 nM,< 100 nM,< 100 nM
"CNC(=O)c1nc(-c2cc3cn(C)nc3c(F)c2O)nc2ccc(N3C[C@H](C)N[C@@H](C)C3)cc12 (single isomer, unassigned) [Compound 669]",< 100 nM,< 100 nM,< 100 nM
"CNC(=O)c1nc(-c2cc3cn(C)nc3cc2O)nc2ccc(N3C[C@H](C)N[C@@H](C)C3)cc12 (single isomer, unassigned) [Compound 676]",< 100 nM,< 100 nM,< 100 nM
"CNC(=O)c1nc(-c2cc3cn(C)nc3cc2O)nc2ccc(N3C[C@@H](C)N[C@H](C)C3)cc12 (single isomer, unassigned) [Compound 677]",< 100 nM,< 100 nM,< 100 nM
"Cc1cn2cc(-c3ccc4cc(N5C[C@H](C)N[C@@H](C)C5)cc(F)c4n3)cc(F)c2n1 (single isomer, unassigned) [Compound 705, 2,2,2-trifluoroacetate]",100 to 1000 nM,< 100 nM,< 100 nM
Cn1cc2cc(-c3ncc4nc(C5CCNCC5)ccc4n3)c(O)c(F)c2n1 [Compound 155],< 100 nM,< 100 nM,< 100 nM
Cc1nc2cc(O)c(-c3ccc4nc(N5CCNC(C(C)(C)C)C5)ccc4n3)cc2o1 (stereo not drawn) [Compound 492],100 to 1000 nM,1000 to 10000 nM,1000 to 10000 nM
Cc1nc2cc(O)c(-c3ccc4nc(N5CC[C@@H](N(C)C(C)(C)C)C5)ccc4n3)cc2o1 [Compound 493],< 100 nM,< 100 nM,< 100 nM
"Cc1c(O)c(-c2nc(C(=O)N(C)C)c3cc(N4CCNCC4)ccc3n2)cc2cn(C)nc12 [Compound 502, 2-(6-hydroxy-2,7-dimethylindazol-5-yl)-N,N-dimethyl-6-(piperazin-1-yl)quinazoline-4-carboxamide]",1000 to 10000 nM,1000 to 10000 nM,1000 to 10000 nM

Compound,AC50 (RT-qPCR),IC50 [1],IC50 [2]
"CCNC(=O)c1nc(-c2cc3cn(C)nc3c(C)c2O)nc2ccc(N3CCNCC3)cc12 [Compound 503, N-ethyl-2-(6-hydroxy-2,7-dimethylindazol-5-yl)-6-(piperazin-1-yl)quinazoline-4-carboxamide]",< 100 nM,< 100 nM,< 100 nM
"CNC(=O)c1nc(-c2cc(F)c3nc(C)cn3c2)nc2ccc(N3CCNCC3)cc12 [Compound 505, 2-{8-fluoro-2-methylimidazo[1,2-a]pyridin-6-yl}-N-methyl-6-(piperazin-1-yl) quinazoline-4-carboxamide]",< 100 nM,< 100 nM,< 100 nM
"CNC(=O)c1nc(-c2cc3cn(C)nc3c(F)c2O)nc2ccc(N3CCNCC3)cc12 [Compound 506, 2-(7-fluoro-6-hydroxy-2-methylindazol-5-yl)-N-methyl-6-(piperazin-1-yl)quinazoline-4-carboxamide]",< 100 nM,< 100 nM,< 100 nM
"CNC(=O)c1nc(-c2cc3cn(C)nc3c(C)c2O)nc2ccc(N3CCC(N(C)C)CC3)cc12 [Compound 507, 6-[4-(dimethylamino)piperidin-1-yl]-2-(6-hydroxy-2,7-dimethylindazol-5-yl)-N-methylquinazoline-4-carboxamide]",< 100 nM,< 100 nM,< 100 nM
"CNc1nc(-c2cc3cn(C)nc3c(C)c2O)nc2ccc(N3CCNCC3)cc12 [Compound 508, 2,7-dimethyl-5-[4-(methylamino)-6-(piperazin-1-yl)quinazolin-2-yl]indazol-6-ol]",1000 to 10000 nM,1000 to 10000 nM,1000 to 10000 nM
"Cc1c(O)c(-c2nc(N(C)C)c3cc(N4CCNCC4)ccc3n2)cc2cn(C)nc12 [Compound 509, 5-[4-(dimethylamino)-6-(piperazin-1-yl)quinazolin-2-yl]-2,7-dimethylindazol-6-ol]",> 10000 nM,> 10000 nM,> 10000 nM
"CNC(=O)c1nc(-c2cc3cn(C)nc3c(C)c2O)nc2ccc(N3CCC(NC)C3)cc12 (stereo not drawn) [Compound 510, 2-(6-hydroxy-2,7-dimethylindazol-5-yl)-N-methyl-6-[3-(methylamino)pyrrolidin-1-yl]quinazoline-4-carboxamide]",< 100 nM,< 100 nM,< 100 nM
"CNC(=O)c1nc(-c2cc3cn(C)nc3c(C)c2O)nc2ccc(N3C[C@@H](C)N[C@@H](C)C3)cc12 [Compound 511, 6-[(3R,5S)-3,5-dimethylpiperazin-1-yl]-2-(6-hydroxy-2,7-dimethylindazol-5-yl)-N-methylquinazoline-4-carboxamide]",< 100 nM,< 100 nM,< 100 nM
"CC(=O)c1nc(-c2cc3cn(C)nc3c(F)c2O)nc2ccc(N3CCNCC3)cc12 [Compound 513, 1-(2-(7-fluoro-6-hydroxy-2-methyl-2H-indazol-5-yl)-6-(piperazin-1-yl)quinazolin-4-yl)ethan-1-one 2,2,2-trifluoroacetate]",< 100 nM,< 100 nM,< 100 nM
"Cn1cc2cc(-c3nc(C#N)c4cc(N5CCNCC5)ccc4n3)c(O)c(F)c2n1 [Compound 514, 2-(7-fluoro-6-hydroxy-2-methylindazol-5-yl)-6-(piperazin-1-yl) quinazoline-4-carbonitrile; trifluoroacetic acid]",< 100 nM,< 100 nM,< 100 nM
"Cc1c(O)c(-c2ccc3cc(N4CCNCC4)cc(F)c3n2)cc2cn(C)nc12 [Compound 515, 5-[8-fluoro-6-(piperazin-1-yl)quinolin-2-yl]-2,7-dimethylindazol-6-ol]",< 100 nM,< 100 nM,< 100 nM
"Cn1cc2cc(-c3ccc4cc(N5CCNCC5)cc(F)c4n3)cc(F)c2n1 [Compound 516, 8-fluoro-2-(7-fluoro-2-methylindazol-5-yl)-6-(piperazin-1-yl)quinoline]",100 to 1000 nM,< 100 nM,< 100 nM
"Cc1cn2cc(-c3ccc4cc(N5CCNCC5)cc(F)c4n3)cc(F)c2n1 [Compound 517, 8-fluoro-2-{8-fluoro-2-methylimidazo[1,2-a]pyridin-6-yl}-6-(piperazin-1-yl)quinoline]",< 100 nM,< 100 nM,< 100 nM
"Cn1cc2cc(-c3nc(C4CC4)c4cc(N5CCNCC5)ccc4n3)c(O)c(F)c2n1 [Compound 518, 5-[4-cyclopropyl-6-(piperazin-1-yl)quinazolin-2-yl]-7-fluoro-2-methylindazol-6-ol; trifluoroacetic acid]",100 to 1000 nM,< 100 nM,< 100 nM
"Cc1c(O)c(-c2nc(-c3cncs3)c3cc(N4CCNCC4)ccc3n2)cc2cn(C)nc12 [Compound 519, 2,7-dimethyl-5-[6-(piperazin-1-yl)-4-(1,3-thiazol-5-yl)quinazolin-2-yl]indazol-6-ol]",100 to 1000 nM,100 to 1000 nM,100 to 1000 nM
"Cc1c(O)c(-c2ncc3cc(N4CCNCC4)ccc3n2)cc2cn(C)nc12 [Compound 520, 2,7-dimethyl-5-[6-(piperazin-1-yl)quinazolin-2-yl]indazol-6-ol]",< 100 nM,100 to 1000 nM,100 to 1000 nM
"Cc1c(O)c(-c2nc(-c3nnc[nH]3)c3cc(N4CCNCC4)ccc3n2)cc2cn(C)nc12 [Compound 522, 2,7-dimethyl-5-[6-(piperazin-1-yl)-4-(4H-1,2,4-triazol-3-yl)quinazolin-2-yl]indazol-6-ol; bis(trifluoroacetic acid)]",1000 to 10000 nM,1000 to 10000 nM,1000 to 10000 nM
